Experiments:
Experiment in all cases: relative viability (nuclei count vs DMSO), 5 days (fraction); higher = more cells survive
RU-SKI 43 + OSI-027 = compound: CC[C@@H](C)CNCC(=O)N1CCC2=C([C@@H]1COC3=CC=CC(=C3)C)C=CS2 [RU-SKI 43] + COc1cccc2cc(-c3nc([C@H]4CC[C@H](C(=O)O)CC4)n4ncnc(N)c34)[nH]c12 [OSI-027] (partner 0.5 µM)
Outline: (§1)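 Relative viability is defined as nuclei in treated wells over nuclei in vehicle wells. Duplicate plates were run and medians reported. Lung cancer cell lines in 1536-well plates were dosed by pin tool one day after seeding, with one drug or with a fixed anchor-drug dose plus five library-drug doses (not always all listed) in √10 steps, and nuclei were counted after 5 days.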

MK-8033 + Linsitinib = compound: Cn1cc(-c2cnc3ccc4ccc(CS(=O)(=O)NCc5ccccn5)cc4c(=O)c3c2)cn1 [MK-8033] + C[C@]1(O)C[C@@H](c2nc(-c3ccc4ccc(-c5ccccc5)nc4c3)c3c(N)nccn32)C1 [Linsitinib] (partner 1 µM)
Outline: as §1

RU-SKI 43 + Trametinib = compound: CC[C@@H](C)CNCC(=O)N1CCC2=C([C@@H]1COC3=CC=CC(=C3)C)C=CS2 [RU-SKI 43] + CC(=O)Nc1cccc(-n2c(=O)n(C3CC3)c(=O)c3c(Nc4ccc(I)cc4F)n(C)c(=O)c(C)c32)c1 [Trametinib] (partner 0.02 µM)
Outline: as §1

MK-8033 + Tozasertib = compound: Cn1cc(-c2cnc3ccc4ccc(CS(=O)(=O)NCc5ccccn5)cc4c(=O)c3c2)cn1 [MK-8033] + Cc1cc(Nc2cc(N3CCN(C)CC3)nc(Sc3ccc(NC(=O)C4CC4)cc3)n2)n[nH]1 [Tozasertib] (partner 0.1 µM)
Outline: as §1

Cell Line	relative viability (RU-SKI 43 + OSI-027; first compound 0.1 µM)	relative viability (RU-SKI 43 + OSI-027; first compound 0.3162 µM)	relative viability (RU-SKI 43 + OSI-027; first compound 1 µM)	relative viability (RU-SKI 43 + OSI-027; first compound 3.162 µM)	relative viability (RU-SKI 43 + OSI-027; first compound 10 µM)	relative viability (MK-8033 + Linsitinib; first compound 0.02 µM)	relative viability (MK-8033 + Linsitinib; first compound 0.06325 µM)	relative viability (MK-8033 + Linsitinib; first compound 0.2 µM)	relative viability (MK-8033 + Linsitinib; first compound 0.6325 µM)	relative viability (MK-8033 + Linsitinib; first compound 2 µM)	relative viability (RU-SKI 43 + Trametinib; first compound 0.1 µM)	relative viability (RU-SKI 43 + Trametinib; first compound 0.3162 µM)	relative viability (RU-SKI 43 + Trametinib; first compound 1 µM)	relative viability (RU-SKI 43 + Trametinib; first compound 3.162 µM)	relative viability (RU-SKI 43 + Trametinib; first compound 10 µM)	relative viability (MK-8033 + Tozasertib; first compound 0.02 µM)	relative viability (MK-8033 + Tozasertib; first compound 0.06325 µM)	relative viability (MK-8033 + Tozasertib; first compound 0.2 µM)	relative viability (MK-8033 + Tozasertib; first compound 0.6325 µM)	relative viability (MK-8033 + Tozasertib; first compound 2 µM)
LXF-289	0.776	0.874	0.951	0.827	0.733	0.926	0.944	1.01	0.96	0.976	0.682	0.743	0.728	0.66	0.66	0.187	0.148	0.157	0.203	0.179
NCI-H23	0.659	0.523	0.782	0.709	0.5	0.508	0.576	0.407	0.599	0.508	0.395	0.392	0.38	0.443	0.348	0.362	0.399	0.253	0.415	0.429
NCI-H322M	0.548	0.511	0.581	0.576	0.575	0.964	0.809	0.869	0.996	0.692	0.492	0.553	0.534	0.565	0.553	0.522	0.464	0.427	0.449	0.44
NCI-H358	0.597	0.642	0.975	0.865	0.564	0.826	0.704	0.731	0.658	0.651	0.125	0.138	0.181	0.139	0.124	0.0969	0.0932	0.1	0.0977	0.106
NCI-H441	0.677	0.511	0.665	0.6	0.481	0.505	0.401	0.54	0.551	0.53	0.483	0.426	0.552	0.45	0.265	0.578	0.568	0.62	0.605	0.475
NCI-H460	0.643	1.24	1.14	0.913	0.521	0.903	0.702	0.686	0.85	0.684	0.224	0.2	0.141	0.197	0.0732	0.392	0.443	0.387	0.377	0.108
NCI-H520	0.301	0.303	0.287	0.251	0.349	0.994	0.876	0.844	0.925	0.991	0.79	1.02	0.654	0.794	0.45	0.408	0.453	0.433	0.485	0.469
NCI-H596	0.823	0.729	0.871	0.764	0.607	0.978	1.1	1.04	1.1	1.09	0.775	0.883	0.858	0.793	0.717	0.802	0.898	0.859	0.944	0.853
NCI-H647	0.647	0.864	0.755	0.918	0.707	1.17	0.88	0.994	1.14	1.04	0.445	0.57	0.472	0.521	0.439	0.276	0.212	0.258	0.0983	0.282
NCI-H650	0.496	0.467	0.643	0.494	0.565	0.868	0.91	0.85	0.805	0.773	0.905	0.931	–	1.05	0.96	0.701	0.598	0.706	0.827	0.679
NCI-H661	0.721	0.808	0.724	0.694	0.68	0.55	0.5	0.53	0.59	0.507	0.539	0.676	0.564	0.564	0.477	0.37	0.328	0.359	0.35	0.345
NCI-H727	0.553	0.642	0.559	0.565	0.455	0.284	0.275	0.253	0.3	0.266	–	0.388	0.449	0.372	0.374	0.577	–	0.714	0.465	0.61
NCI-H838	0.431	0.264	0.355	0.417	0.38	0.988	0.98	0.985	0.98	0.953	0.491	0.645	0.471	0.529	0.505	0.297	0.272	0.281	0.266	0.236
NCI-H1355	0.408	0.378	0.486	0.428	0.442	0.735	0.7	0.762	0.795	0.828	0.451	0.437	0.376	0.477	0.464	0.572	0.524	0.513	0.526	0.398
NCI-H1395	0.717	0.684	0.747	0.558	0.6	1.09	1.05	1.08	1.03	0.892	1.06	1.2	1.23	0.98	0.981	0.757	0.651	0.735	0.76	0.707
NCI-H1437	0.986	0.855	0.865	0.943	0.862	0.976	1.01	0.94	1.01	0.917	0.492	0.555	0.59	0.527	0.363	0.408	0.424	0.401	0.395	0.372
NCI-H1651	0.838	0.768	0.878	0.764	0.846	1.07	0.835	0.824	1.03	0.856	0.793	0.876	0.966	0.893	0.835	0.746	0.667	0.734	0.524	0.557
NCI-H1666	0.897	0.87	0.85	0.858	0.752	0.872	0.754	0.83	0.66	0.81	0.831	0.804	0.803	0.845	0.68	0.588	0.587	0.589	0.648	0.614
NCI-H1734	0.498	0.638	0.603	0.671	0.534	0.904	0.769	0.852	0.93	0.858	0.656	0.758	0.724	0.695	0.622	0.243	0.215	0.3	0.261	0.242
NCI-H1755	0.757	0.825	0.781	0.841	0.699	0.996	0.993	0.954	0.988	0.946	0.751	0.866	0.839	0.833	0.768	0.552	0.473	0.536	0.537	0.536
NCI-H1793	0.257	0.21	0.348	0.28	0.257	0.915	–	0.775	0.858	0.782	0.439	0.386	0.435	0.473	0.479	0.332	0.325	0.34	0.416	0.23
NCI-H1915	0.641	0.706	0.703	0.686	0.614	1.12	1.07	1.09	1.08	1.15	0.296	0.34	0.311	0.288	0.265	0.435	0.424	0.391	0.439	0.362
NCI-H1944	0.428	0.397	0.503	0.445	0.404	1.2	–	1.12	1.23	1.37	0.349	0.406	0.417	0.387	0.388	0.237	0.218	0.209	0.261	0.23
NCI-H1975	0.749	0.829	1.02	0.779	0.604	0.925	0.957	0.873	0.956	0.905	0.311	0.351	0.355	0.296	0.257	0.725	0.608	0.677	–	0.352
NCI-H1993	0.53	0.527	0.596	0.59	0.575	0.773	0.766	0.73	0.751	0.687	0.474	0.514	0.615	0.579	0.694	0.564	0.525	0.561	0.525	0.583
NCI-H2009	0.69	0.599	0.698	0.699	0.601	1.21	1.12	1.07	1.21	1.11	0.28	0.295	0.291	0.313	0.244	0.776	0.703	0.694	0.707	0.737
NCI-H2023	0.442	0.455	0.465	0.413	0.372	0.651	0.533	0.473	0.536	0.415	0.585	0.643	0.547	0.685	0.528	0.374	0.273	0.251	0.221	0.122
